{
  "source": "PubChem BioAssay (NCI)",
  "test_system": "SN12K1 renal",
  "assay": "inhibition of tumour cell growth, NCI panel, 48 h",
  "note": "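Each compound was tested at five concentrations against cells in 96-well plates for 48 hours. The concentration for full growth arrest is given as TGI.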",
  "data": [
    {"smiles": "C=C(C)C(=O)NC(N)=NC#N", "values": [
      {"measurement": "TGI", "value": "> 56.4", "unit": "µM"}
    ]}
  ]
}
